The values below come from patent publication US8119841B2 (Novartis AG, priority 2006, dated 2012).

Data set [1] can be described thus: amorphous material kept under organic solvent vapor, XRPD. The data set is classed as physicochemical. Set-up: key: +: change detected; −: no change detected; //: not carried out as substance too soluble. The settings on record: room temperature, at least one week. How it is done: For example, about 100 mg of amorphous material are placed under organic solvent vapor for at least one week at room temperature. The solid material is investigated by XRPD (X-ray powder diffraction), and the following results are obtained: […]

The nature of data set [2]: dynamic vapor sorption isotherm. The data set is classed as physicochemical. As to conditions: for reversibility of hygroscopicity: up to 60% R.H. at 25° C. From the text: B) Dynamic Vapor Sorption Isotherm of Modification A, Modification B and Amorphous Material: In the following tables 7 and 8, R.H. stands for Relative Humidity, Sorpt. for Sorption and Desorpt. for Desorption.

A short description of data set [3]: equilibration in solvents, solid investigated by XRPD. As to conditions: for change of the form: in cyclohexane or n-heptane; for XRPD after equilibration: 25 degree Celsius. Set-up: key to XRPD after equilibration: +: change detected; −: no change detected; //: not carried out as substance too soluble. The data set is classed as physicochemical. How it is done:
Between 200 mg to 700 mg of drug substance are equilibrated with 0.5 to 1 ml of solvent for at least 24 h in a water bath at the determined temperature +/−0.1° C. After equilibration, the solutions are filtered. The solid part is investigated by XRPD (X-ray Powder Diffraction).

Data set [4] can be described thus: XRPD at various relative humidities. The data set is classed as physicochemical. As for the experimental part:
(§1) The aim is to evaluate the influence of the storage condition on the crystalline form of SPP100 hemifumarate For this purpose, two different experiments have been performed. The first one consists to submit SPP100 hemifumarate modification A to a nitrogen flow and to record at various time the corresponding XRPD pattern. During the second experiment the influence of relative humidity on the crystalline modification A is determined by XRPD measurement.

Data set [5] in a line: XRPD during storage under nitrogen flow. The data set is classed as physicochemical. As for the experimental part: as §1
A short description of data set [6]: heat of dissolution in water. The data set is classed as physicochemical. The settings on record: about 100 mg in 100 ml of water, 25° C.; mean of three determinations. As for the experimental part:
About 100 mg of material is placed in a sealed glass ampoule. After equilibration at 25° C., the ampoule is broken in 100 ml of water.

The nature of data set [7]: stability of solvate single crystals to air and humidity. The data set is classed as physicochemical. How it is done: Characterisation: Structurally, solvate forms SC and SD are characterized by single crystal X-ray diffraction. The single crystals are grown using heptane as antisolvent. The isopropanol and the ethanol solvate of SPP100 hemifumarate can be grown as small needles from isopropanol, or ethanol solution respectively, by precipitation with heptane antisolvent. As there the data quality is better, only the ethanol solvate form obtained from ethanol/heptane (so called SD, corresponding to Form D mentioned in Example 9) is discussed in detail. But from the data the conclusion can be drawn that the isopropanol solvate (so called SC) is isostructural to the ethanol solvate (when heptane is used as antisolvent). The solvate SD stoichiometry consists of one SPP100 molecule, 1/2 fumarate group and 3 solvent molecules.
They consist of a distinct channel structure along the crystallographic b-axis which occupies about 25% of the whole crystal structure volume. […] Hydrogen bonds can be found between SPP100 (hydroxyl group and protonated amine group of SPP100) and the fumarate group and between SPP100 molecules (protonated amine group and oxygen). Another H-bond exists between ethanol and SPP100 (oxygen and amine group). Dominating propagation vector of the H-bonds is the crystallographic b-axis. […]

Data set [8] concerns patients with mild to moderate hypertension. As to conditions: aliskiren 75 mg to 300 mg; 4 weeks duration; cited from earlier work.
The subject of data set [9] is severely sodium-depleted marmoset monkeys. As to conditions: orally or intravenously; cited from earlier work.
Data set [10] relates to patients with NYHA class II-IV heart failure and LVEF <35%. The settings on record: in vivo; cited from earlier work.

The structures appear in SMILES notation.

With `COCCCOc1cc(C[C@@H](C[C@H](N)[C@@H](O)C[C@H](C(=O)NCC(C)(C)C(N)=O)C(C)C)C(C)C)ccc1OC` [Amorphous, aliskiren hemifumarate], the “Modification obtained by XRPD” value in data set [1] (1-hexanol vapor) was “+ Typ V”; in data set [1] (2-propanol vapor), “+ Typ V”; in data set [1] (Acetonitrile vapor), “+ Typ. IV”; in data set [1] (Dimethylformamide vapor), “Mainly amorphous”; in data set [1] (Ethanol vapor) it was “Amorphous + Typ. V”; in [1] (Ethyl acetate vapor), “+ amorphous + small amount of Typ. III”. Also, the “Modification obtained by XRPD” value in data set [1] (Methyl acetate vapor) is “+ Typ I”; in [1] (TBME vapor), “−”; in data set [1] (Tetrahydrofurane vapor), “+ Typ III”; in data set [1] (Toluene vapor), “−”; in [1] (n-butanol vapor), “+ Typ. V”. Moreover, the hygroscopic behavior result in data set [2] is listed as “strong hygroscopic behavior”. Also, the reversibility of hygroscopicity result in [2] is reported as “reversible”. The “change of the form” value in data set [3] was “No change”.

As to `COCCCOc1cc(C[C@@H](C[C@H](N)[C@@H](O)C[C@H](C(=O)NCC(C)(C)C(N)=O)C(C)C)C(C)C)ccc1OC` [Modification A, aliskiren hemifumarate], the hygroscopic behavior result in data set [2] was “strong hygroscopic behavior”. In data set [2] (R.H. 0 %), the “Sorpt. wt % 1st” value came to 0.00 wt %. Also, in data set [2], the reversibility of hygroscopicity result was “reversible”. Moreover, the XRPD after equilibration entry is recorded as “+ chemical reaction” in data set [3] (Acetone); “−” in data set [3] (Acetonitrile); “−” in data set [3] (Cyclohexane); “+ Typ III” in data set [3] (DMAc); “+ Typ III” in data set [3] (Dioxane); “+ Mod. B” in data set [3] (Isopropanol). Also, the XRPD after equilibration result in data set [3] (Methylethylketone) is “+ chemical reaction”; in data set [3] (Pentanol) it was “+ Typ V”; in [3] (TBME) it was “+ amorphous + Typ II”; in [3] (Tetrahydrofurane), “+ Typ III”; in data set [3] (Toluol), “+ amorphous”; in data set [3] (n-heptane), “−”. Besides, the “change of the form” value in data set [3] is given as “No change”. The XRPD entry was “Mod A” in [4] (0 h, RH 0%*); “Mod A” in data set [4] (2.55 h, RH 10%); “Mod A” in data set [4] (5.01 h, RH 25%); “Mod A” in data set [4] (7.4 h, RH 35%); “Mod A” in data set [4] (9.8 h, RH 45%); “Mod A” in data set [4] (24.23 h, RH 45%). For the same molecule, the XRPD entry in data set [4] (26.86 h, RH 60%) was “Mod A”; in data set [4] (32.51 h, RH 70%), “Mod A”; in data set [4] (47.6 h, RH 70%), “Mod A”; in data set [4] (143.9 h, RH 70%), “Mod A”; in data set [5] (0.00 hour), “Mod A”; in data set [5] (2.25 hour) it was “Mod A”. In addition, the XRPD entry in [5] (4.53 hour), in data set [5] (7.80 hour), in [5] (13.10 hour) and in data set [5] (14.75 hour) was “Mod A” throughout. Moreover, the Change entry in [5] (0.00 hour), in data set [5] (2.25 hour), in [5] (4.53 hour), in data set [5] (7.80 hour), in data set [5] (13.10 hour) and in data set [5] (14.75 hour) was “none” in each case. In [6], the “heat of dissolution, Mean” value is -7.55 kcal/mol.

As to `COCCCOc1cc(C[C@@H](C[C@H](N)[C@@H](O)C[C@H](C(=O)NCC(C)(C)C(N)=O)C(C)C)C(C)C)ccc1OC` [Modification B, aliskiren hemifumarate], the hygroscopic behavior entry in data set [2] is “strong hygroscopic behavior”. In data set [2], the “hygroscopicity compared among the 3 modifications” value was “least hygroscopic form”. In addition, the “Desorpt wt % 2nd” value in data set [2] (R.H. 0 %) is on record as 0.04 wt %; in data set [2] (R.H. 10 %), 2.33 wt %; in data set [2] (R.H. 20 %), 3.17 wt %; in data set [2] (R.H. 30 %), 3.76 wt %; in data set [2] (R.H. 40 %) it was 4.47 wt %; in data set [2] (R.H. 50 %), 5.65 wt %. Further, the “Desorpt wt % 2nd” value in data set [2] (R.H. 60 %) is listed as 7.68 wt %. In addition, the “Sorpt. wt % 1st” value in data set [2] (R.H. 0 %) is given as 0.00 wt %; in [2] (R.H. 10 %), 0.94 wt %; in [2] (R.H. 20 %), 1.69 wt %; in [2] (R.H. 30 %), 2.53 wt %; in data set [2] (R.H. 40 %) it was 3.68 wt %; in [2] (R.H. 50 %), 5.52 wt %. Moreover, the “Sorpt. wt % 1st” value in data set [2] (R.H. 60 %) worked out at 7.68 wt %. Moreover, the reversibility of hygroscopicity entry in data set [2] is “reversible”. The “change of the form” value in data set [3] is “No change”. For the same molecule, the “heat of dissolution, Mean” value in [6] is -5.88 kcal/mol.

In the case of `COCCCOc1cc(C[C@@H](C[C@H](N)[C@@H](O)C[C@H](C(=O)NCC(C)(C)C(N)=O)C(C)C)C(C)C)ccc1OC` [SC, aliskiren hemifumarate], the “stability of the structure to air and humidity” value in data set [7] is “very sensible to air and humidity and decompose rapidly”.

For the molecule `COCCCOc1cc(C[C@@H](C[C@H](N)[C@@H](O)C[C@H](C(=O)NCC(C)(C)C(N)=O)C(C)C)C(C)C)ccc1OC` [aliskiren, 2(S),4(S),5(S),7(S)-N-(3-amino-2,2-dimethyl-3-oxopropyl)-2,7-di(1-methylethyl)4-hydroxy-5-amino-8-[4-methoxy-3-(3-methoxy-propoxy)phenyl]-octanamide], the blood pressure entry in data set [8] is “Dose dependent decreases”. Besides, in [9], the mean arterial pressure result is on record as “sustained reductions”; the “plasma concentrations of active and total renin” value is “significant increases”; the plasma renin activity entry was “complete inhibition”. Also, in [10], the PRA result is “inhibited” and the “angiotensin II levels” value is given as “Trends towards reduced”.

As for `CCOC(=O)[C@H](CCc1ccccc1)N[C@@H](C)C(=O)N1[C@H](C(=O)O)C[C@@H]2CCC[C@@H]21` [ramipril], in [10], the PRA entry was “increased”, the “angiotensin II levels” value was “Trends towards reduced” and the “effects on hormonal parameters” value is reported as “No deleterious effects”.
